Test results: PubChem BioAssay AID248 (DTP/NCI, 2004)
Several values for one entry are separate records, joined by “and”; a condition that tells them apart may be missing. Equal values may be shown once. Inconclusive results and toxic doses are left out. Rule as the data show it: active = T/C of 150% or more; inactive = T/C below 125%.

Test system: L1210 leukemia ip in BDF1 mice, survival T/C
Experiment: NCI In Vivo Anticancer Drug Screen. Data for tumor model L1210 Leukemia (intraperitoneal) in B6D2F1 (BDF1) mice
Settings: endpoint: mean survival time, higher = longer survival
How it was run: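 Ratio derived from survival: compound-dosed mice over vehicle-dosed mice, all bearing a transplantable tumor.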

[1] = dose: 100.0 mg/kg/injection, schedule: Q01DX009 (ip), vehicle: Klucel (hydroxypropylcellulose) (HPC)
[2] = dose: 200.0 mg/kg/injection, schedule: Q01DX009 (ip), vehicle: Klucel (hydroxypropylcellulose) (HPC)
[3] = dose: 50.0 mg/kg/injection, schedule: Q01DX009 (ip), vehicle: saline
[4] = dose: 12.5 mg/kg/injection, schedule: Q01DX009 (ip), vehicle: saline
[5] = dose: 25.0 mg/kg/injection, schedule: Q01DX009 (ip), vehicle: saline
[6] = dose: 100.0 mg/kg/injection, schedule: Q04DX003 (ip), vehicle: Klucel (hydroxypropylcellulose) (HPC)
[7] = dose: 200.0 mg/kg/injection, schedule: Q04DX003 (ip), vehicle: Klucel (hydroxypropylcellulose) (HPC)
[8] = dose: 400.0 mg/kg/injection, schedule: Q04DX003 (ip), vehicle: Klucel (hydroxypropylcellulose) (HPC)
[9] = dose: 100.0 mg/kg/injection, schedule: Q01DX001 (ip), vehicle: carboxymethylcellulose (CMC)
[10] = dose: 200.0 mg/kg/injection, schedule: Q01DX001 (ip), vehicle: carboxymethylcellulose (CMC)
[11] = dose: 400.0 mg/kg/injection, schedule: Q01DX001 (ip), vehicle: carboxymethylcellulose (CMC)
[12] = dose: 100.0 mg/kg/injection, schedule: Q01DX001 (ip), vehicle: other
[13] = dose: 200.0 mg/kg/injection, schedule: Q01DX001 (ip), vehicle: other
[14] = dose: 100.0 mg/kg/injection, schedule: Q01DX009 (ip), vehicle: saline with Tween-80
[15] = dose: 100.0 mg/kg/injection, schedule: Q04DX003 (ip), vehicle: saline with Tween-80
[16] = dose: 200.0 mg/kg/injection, schedule: Q01DX009 (ip), vehicle: saline with Tween-80
[17] = dose: 200.0 mg/kg/injection, schedule: Q04DX003 (ip), vehicle: saline with Tween-80
[18] = dose: 400.0 mg/kg/injection, schedule: Q01DX009 (ip), vehicle: saline with Tween-80
[19] = dose: 400.0 mg/kg/injection, schedule: Q04DX003 (ip), vehicle: saline with Tween-80

Measured: T/C

COC(=O)C1OC1c1ccc2ccccc2c1 (stereo not given)
inactive: [1] 93 % of control | [2] 95 % of control | dose: 400.0 mg/kg/injection, schedule: Q01DX009 (ip), vehicle: Klucel (hydroxypropylcellulose) (HPC) 97 % of control

CCCCCCC(C)OC(=O)c1ccccc1C(=O)OC(C)CCCCCC (stereo not given)
inactive: dose: 100.0 mg/kg/injection, schedule: Q04DX002 (ip), vehicle: saline 102 % of control | dose: 200.0 mg/kg/injection, schedule: Q04DX002 (ip), vehicle: saline 95 % of control | dose: 400.0 mg/kg/injection, schedule: Q04DX002 (ip), vehicle: saline 102 % of control

CCCCCCCCCCCC(=O)Nc1ccccc1
inactive: dose: 12.5 mg/kg/injection, schedule: Q01DX009 (ip), vehicle: Klucel (hydroxypropylcellulose) (HPC) 92 % of control | dose: 25.0 mg/kg/injection, schedule: Q01DX009 (ip), vehicle: Klucel (hydroxypropylcellulose) (HPC) 90 % of control | dose: 50.0 mg/kg/injection, schedule: Q01DX009 (ip), vehicle: Klucel (hydroxypropylcellulose) (HPC) 110 % of control

CCCCC(/C=N\NC(=O)c1ccc[n+](C)c1)CC (stereo not given)
inactive: [3] 103 % of control | dose: 100.0 mg/kg/injection, schedule: Q01DX009 (ip), vehicle: saline 100 % of control

Nc1ccc(C(=O)OCCCN2CCCCC2)cc1
inactive: [4] 101 % of control | [5] 97 % of control | [3] 101 % of control

ClC(Cl)(Cl)C(Cl)(Cl)OC(Cl)(Cl)C(Cl)(Cl)Cl
inactive: dose: 100.0 mg/kg/injection, schedule: Q01DX001 (ip), vehicle: Klucel (hydroxypropylcellulose) (HPC) 107 % of control | [6] 100 % of control | dose: 200.0 mg/kg/injection, schedule: Q01DX001 (ip), vehicle: Klucel (hydroxypropylcellulose) (HPC) 112 % of control | [7] 92 % of control | dose: 400.0 mg/kg/injection, schedule: Q01DX001 (ip), vehicle: Klucel (hydroxypropylcellulose) (HPC) 95 % of control | [8] 95 % of control

Cc1cc(C(=O)O)c(C)o1
inactive: [1] 96 % of control | [2] 93 % of control

CC(C)N=Cc1ccccc1O.CC(C)N=Cc1ccccc1O.[Co]
inactive: dose: 100.0 mg/kg/injection, schedule: Q01DX009 (ip), vehicle: saline sonified 108 % of control | [6] 103 % of control | dose: 200.0 mg/kg/injection, schedule: Q01DX009 (ip), vehicle: saline sonified 100 % of control | [7] 99 % of control | [8] 100 % of control

CCN(CC)Cc1ccccc1
inactive: dose: 75.0 mg/kg/injection, schedule: Q01DX001 (ip), vehicle: other 95 % of control

N#CCC(=O)NCc1ccncc1
inactive: [9] 95 % of control | dose: 100.0 mg/kg/injection, schedule: Q04DX003 (ip), vehicle: carboxymethylcellulose (CMC) 95 % of control | [10] 106 % of control | dose: 200.0 mg/kg/injection, schedule: Q04DX003 (ip), vehicle: carboxymethylcellulose (CMC) 96 % of control | [11] 108 % of control | dose: 400.0 mg/kg/injection, schedule: Q04DX003 (ip), vehicle: carboxymethylcellulose (CMC) 91 % of control

Oc1ccccc1N=Cc1c(O)ccc2ccccc12
inactive: [12] 96 % of control | [13] 98 % of control | dose: 400.0 mg/kg/injection, schedule: Q01DX001 (ip), vehicle: other 101 % of control

Nc1ncccn1
inactive: [6] 101 % of control | [7] 93 % of control | [8] 101 % of control

C[N+]1(C)CCOCC1
inactive: dose: 10.0 mg/kg/injection, schedule: Q01DX001 (ip), vehicle: saline 99 % of control | dose: 20.0 mg/kg/injection, schedule: Q01DX001 (ip), vehicle: saline 100 % of control | dose: 40.0 mg/kg/injection, schedule: Q01DX001 (ip), vehicle: saline 96 % of control

Cc1ccc(Nc2cc(Br)c(N)c3c2C(=O)c2ccccc2C3=O)cc1
inactive: dose: 100.0 mg/kg/injection, schedule: Q01DX001 (ip), vehicle: saline with Tween-80 103 % of control | [14] 93 % of control and 94 % of control | dose: 100.0 mg/kg/injection, schedule: Q04DX002 (ip), vehicle: saline with Tween-80 92 % of control | [15] 97 % of control | dose: 200.0 mg/kg/injection, schedule: Q01DX001 (ip), vehicle: saline with Tween-80 102 % of control | [16] 93 % of control and 94 % of control | dose: 200.0 mg/kg/injection, schedule: Q04DX002 (ip), vehicle: saline with Tween-80 86 % of control | [17] 95 % of control | dose: 400.0 mg/kg/injection, schedule: Q01DX001 (ip), vehicle: saline with Tween-80 91 % of control | [18] 96 % of control and 97 % of control | dose: 400.0 mg/kg/injection, schedule: Q04DX002 (ip), vehicle: saline with Tween-80 86 % of control | [19] 90 % of control

CCCCCCC(C)O[Si](C)c1ccc(OC)cc1 (stereo not given)
inactive: [14] 107 % of control | [15] 98 % of control | [16] 105 % of control | [17] 101 % of control | [18] 98 % of control | [19] 102 % of control

CCCCC(O)(C(C)C)C(C)C
inactive: [9] 102 % of control | [10] 98 % of control | [11] 98 % of control

NC(=O)N(CCc1ccccc1)N=O
inactive: dose: 6.25 mg/kg/injection, schedule: Q01DX Z (ip), vehicle: carboxymethylcellulose (CMC) 98 % of control | dose: 12.5 mg/kg/injection, schedule: Q01DX Z (ip), vehicle: carboxymethylcellulose (CMC) 109 % of control | dose: 25.0 mg/kg/injection, schedule: Q01DX Z (ip), vehicle: carboxymethylcellulose (CMC) 98 % of control | dose: 50.0 mg/kg/injection, schedule: Q01DX Z (ip), vehicle: carboxymethylcellulose (CMC) 118 % of control | dose: 75.0 mg/kg/injection, schedule: Q01DX Z (ip), vehicle: carboxymethylcellulose (CMC) 103 % of control | dose: 100.0 mg/kg/injection, schedule: Q01DX Z (ip), vehicle: carboxymethylcellulose (CMC) 114 % of control | dose: 150.0 mg/kg/injection, schedule: Q01DX Z (ip), vehicle: carboxymethylcellulose (CMC) 120 % of control | dose: 200.0 mg/kg/injection, schedule: Q01DX Z (ip), vehicle: carboxymethylcellulose (CMC) 111 % of control

CNS(=O)(=O)CCC(N)C(=O)O (stereo not given)
inactive: [15] 97 % of control | [17] 103 % of control | [19] 97 % of control

C=CC1CN2CCC1CC2C(O)c1ccnc2ccc(OC)cc12 (stereo not given)
inactive: dose: 27.45 mg/kg/injection, schedule: Q01DX Z (ip), vehicle: other 92 % of control | dose: 54.9 mg/kg/injection, schedule: Q01DX Z (ip), vehicle: other 92 % of control | dose: 75.0 mg/kg/injection, schedule: Q01DX009 (ip), vehicle: saline with Tween-80 92 % of control | dose: 109.8 mg/kg/injection, schedule: Q01DX Z (ip), vehicle: other 94 % of control | dose: 200.0 mg/kg/injection, schedule: Q01DX001 (ip), vehicle: saline 101 % of control

Cc1ccc(S(=O)(=O)N2C=Cc3ccccc3CC2)cc1
inactive: [9] 107 % of control | [10] 100 % of control | [11] 112 % of control

COc1ccc(C)cc1NC(=O)Nc1ccco1
inactive: [14] 97 % of control | [16] 92 % of control | [18] 90 % of control

CC(C)=CCNC1=NCCN1
inactive: [4] 91 % of control | [5] 94 % of control | [3] 99 % of control

COc1c2ccoc2nc2ccc3c(c12)C=CC(C)(C)O3
inactive: dose: 50.0 mg/kg/injection, schedule: Q01DX001 (ip), vehicle: carboxymethylcellulose (CMC) 98 % of control | [9] 104 % of control | [10] 104 % of control | [11] 98 % of control

Cc1cc(S(=O)(=O)c2cc(C)c(O)c(C(=O)O)c2)cc(C(=O)O)c1O
inactive: dose: 100.0 mg/kg/injection, schedule: Q04DX002 (ip), vehicle: carboxymethylcellulose (CMC) 95 % of control | dose: 200.0 mg/kg/injection, schedule: Q04DX002 (ip), vehicle: carboxymethylcellulose (CMC) 98 % of control

COc1cccc(/C=C2\N=C(c3ccccc3)OC2=O)c1
inactive: [14] 102 % of control | [15] 97 % of control | [16] 107 % of control | [17] 94 % of control | [18] 102 % of control and 90 % of control | [19] 93 % of control

Cc1ccccc1N=Cc1ccccc1O.[Co]
inactive: [12] 102 % of control | [13] 98 % of control

O=[N+]([O-])c1ccccc1C1=Cc2cccn2-c2ccccc2S1(=O)=O
inactive: [6] 95 % of control | [7] 100 % of control
